Assay results as given in article PMC4391943, “Novel Epigallocatechin-3-Gallate (EGCG) Derivative as a New Therapeutic Strategy for Reducing Neuropathic Pain after Chronic Constriction Nerve Injury in Mice” (PLoS ONE, 2015).

What was measured:
CCI-mice = assay: Thermal hyperalgesia (plantar heat / Hargreaves test), paw withdrawal latency after chronic constriction injury; format: in vivo; conditions: for latency to paw withdrawal to a thermal stimulus: mean ± SEM, n = 5; for time-dependent effect on thermal paw withdrawal latency vs vehicle: 50 mg/Kg i.p., assessed weekly from 7 to 56 dpi, n = 15 (Fig 1)
Procedure: The chronic constriction injury (CCI) followed the procedure described elsewhere. Animals were anesthetized with sodium pentobarbital (50 mg/kg; i.p.), an incision was made in the right thigh, and the sciatic nerve was exposed. Two loose ligatures with 1 mm apart were then made around the nerve using the 6–0 poly-glycolic acid synthetic absorbable sutures. The incision was closed using 5–0 interrupted nylon sutures. A control group was included with sham surgery where the right sciatic nerve was exposed but not further manipulated.
For dose response studies, EGCG and the two synthetic EGCG derivatives compound 23 and compound 30 were administered by intra-peritoneal injection at 10, 30, 50 and 100 mg/Kg (n = 5 mice/compound/dose), 30 minutes after the CCI. To analyze the time-dependent effect EGCG and the two synthetic EGCG derivatives compound 23 and compound 30 were administered by intra-peritoneal injection at 50 mg/Kg (n = 15 mice/compound), 30 minutes after the CCI. Another set of animals were used to study the effect of 50 mg/kg of EGCG and the two synthetic EGCG derivatives compound 23 and compound 30 at 14 dpi (n = 15 mice/compound). In all cases, the administration was daily repeated during the first week. All compounds were dissolved in DMSO/saline solution (1:9; v/v), used as vehicle group.
To measure changes in thermal sensation we used the plantar heat test (Ugo Basile, Italy) as previously described. Briefly, mice were acclimated 5 days (15 min/day) prior to CCI. At 7, 14, 21, 28, 35, 42, 49 and 56 dpi, mice were enclosed in a clear Plexiglas box. After 15 min, during which the animals were provided with free exploration to habituate to the apparatus, infrared light beam was applied to the plantar surface of the […], and paw withdrawal latency was recorded in seconds. The infrared stimulus application automatically shut off at 30 seconds to avoid tissue damage. Four trials were measured randomly for right […] with at least 2 minutes between each trial.

TNF-α, IL-1β and IL-6 = assay: Quantitative RT-PCR of cytokine mRNA in the dorsal horn of the spinal cord; format: in vivo, mice; conditions: 50 mg/Kg
Procedure: Total RNA was isolated from dorsal horn of spinal cord segments distal to T12 vertebra of all groups (n = 5 mice per group) using the Total RNA isolation nucleospin RNA II Kit. Purified RNA (600 ng) was reverse transcribed using the StrataScript First Strand cDNA Synthesis System. The cDNA synthesis was performed at 42°C for 60 minutes according to the manufacturer’s instructions. The cDNA was then analyzed by quantitative RT-PCR using the following TaqMan Gene Expression Assays (Applied Biosystems, Foster City, CA): 18S, HS99999901_s1; TNF-α, Mm00443258_m1; IL-1β, Mm00434228_m1; IL-6, Mm00446190_m1. The RT-PCR was performed as previously described. Analysis and quantification was obtained with the comparative quantification analysis program of the Mx-Pro Q-PCR Analysis software version 3.0 (Strategene).

NF-κB = assay: Western blot of nuclear NF-κB levels in the dorsal horn of the spinal cord; format: in vivo, mice; conditions: 50 mg/Kg, 14 dpi
Procedure: Subcellular fractionation was obtained by differential centrifugation as described elsewhere. Briefly, tissue was homogenized in lysis buffer (10 mM Tris-HCl pH 7.5, 1 mM EDTA, 1 mM Na3VO4, 0.25 M sucrose, 2 mM PMSF, 1 μg/μL aprotinin, 1 μg/μL leupeptin, 2 mM sodium orthovanadate). The homogenate was centrifuged at 2,000 × g for 10 min at 4°C to separate the nuclei fraction (P1). The P1 was resuspended in lysis buffer. The resulting supernatant was centrifuged at 10,000×g for 15 min at 4°C to obtain a crude membrane fraction (P2). The P2 was resuspended and incubated in the lysis buffer containing 0.5% Triton X-100 for 15 min, and then centrifuged at 25,000 × g for 20 min to obtain the synaptosomal membrane fraction (P3). Finally, the P3 was resuspended in lysis buffer and centrifuged on a discontinuous sucrose gradient (0.8 M, 1 M and 1.2 M) at 150,000×g for 2 h. Synaptic plasma membrane (SPM) was collected from the 1:1.2 M interface and resuspended in 50 mM HEPES, 2 mM EDTA, 1 mM PMSF, 10 μg/ml aprotinin, 1 μg/ml leupeptin and 2 mM sodium orthovanadate.
Western blotting was performed as previously described. The following primary antibodies were used: anti-FASN (1:1000, BD Bioscience, San Jose, CA); anti-TNF-α, anti-IL-1β, anti-IL-6 and anti-NFκB (all 1:500, Santa Cruz Biotechnology, Santa Cruz, CA); anti-phosphoNMDAR2B (Tyr1472) (1:2000, Affinity Bioreagents, Golden, CO) and anti-NMDAR2B (1:1000, Chemicon, Temecula, CA). Loading control was performed by reprobing the membranes with anti-actin (1:10,000; MP Biochemicals, Aurora, OH), anti-NeuN (1:1,000; Chemicon) or anti-N-cadherin (1:1000, BD Bioscience). Membranes were incubated with the corresponding horseradish peroxidase-conjugated antibody (1:2,000; Promega, Madison, WI). Immunoreactive bands were visualized using the Western Blotting Luminol Reagent and quantified by a computer-assisted densitometer (Gel-Pro Analyzer, version 4, Media Cybernetics).

[1] = Serum stability study, human serum; format: in vitro ADME; conditions: 37°C, 75% serum, 0.5 mM compound; for half-life at 0.5 mM: human serum (75% final serum content), read-out: half-life (t1/2) (converted)
Procedure: (§1) Peptide stabilities were assayed in diluted serum as previously described. Human serum (Sigma, S7023) or mouse serum (Europa Bioproducts, EQSM-0100) were incubated at 37°C for 10 min. The assay was initiated upon the addition of the test compound solved in PBS to the serum (75% final serum content) for a final compound concentration of 0.5 mM. Then, 500 µL aliquots of the incubations were taken for the following time points: 0, 15, 30, 60, 120 and 240 min. The aliquots were mixed with 750 µL of cold acetonitrile (ACN) and incubated at 4°C for 10 min to precipitate serum proteins. The supernatant was collected for each sample after centrifugation at 39,000 g for 10 min and were immediately analyzed by high performance liquid chromatography-mass spectrometry (HPLC-MS).

[2] = Serum stability study, mouse serum; format: in vitro ADME; conditions: mouse (Balb/c) serum, 37°C, 75% serum, 0.5 mM compound; for half-life at 0.5 mM: mouse serum (75% final serum content), read-out: half-life (t1/2) (converted)
Procedure: as §1

[3] = 10 mg/Kg i.p. daily first week post-CCI, 7 dpi
[4] = 10 mg/Kg i.p. daily first week post-CCI, 21 dpi
[5] = 30 mg/Kg i.p. daily first week post-CCI, 7 dpi
[6] = 30 mg/Kg i.p. daily first week post-CCI, 21 dpi
[7] = 50 mg/Kg i.p. daily first week post-CCI, 7 dpi
[8] = 50 mg/Kg i.p. daily first week post-CCI, 21 dpi
[9] = 100 mg/Kg i.p. daily first week post-CCI, 7 dpi
[10] = 100 mg/Kg i.p. daily first week post-CCI, 21 dpi

O=C(Oc1cccc2c(OC(=O)c3cc(O)c(O)c(O)c3)cccc12)c1cc(O)c(O)c(O)c1 [Compound 23, 1,5-Bis [(3,4,5-trihydroxybenzoyl)oxy] naphthalene]
latency to paw withdrawal to a thermal stimulus (CCI-mice; [3]): 4.07 ± 0.31 s
latency to paw withdrawal to a thermal stimulus (CCI-mice; [4]): 3.89 ± 0.43 s
latency to paw withdrawal to a thermal stimulus (CCI-mice; [5]): 4.57 ± 0.29 s
latency to paw withdrawal to a thermal stimulus (CCI-mice; [6]): 3.77 ± 0.59 s
latency to paw withdrawal to a thermal stimulus (CCI-mice; [7]): 4.38 ± 0.3 s
latency to paw withdrawal to a thermal stimulus (CCI-mice; [8]): 3.93 ± 0.24 s
time-dependent effect on thermal paw withdrawal latency vs vehicle (CCI-mice): did not detect differences at any time point analyzed
latency to paw withdrawal to a thermal stimulus (CCI-mice; [9]): 4.41 ± 0.27 s
latency to paw withdrawal to a thermal stimulus (CCI-mice; [10]): 3.71 ± 0.29 s
decrease in mRNA levels of TNF-α, IL-1β and IL-6 compared to vehicle (TNF-α, IL-1β and IL-6; 14 dpi): no differences
nuclear NF-κB levels (NF-κB): no changes
half-life at 0.5 mM [1]: 84 min
half-life at 0.5 mM [2]: 18 min

O=C(Oc1ccc(-c2ccc(OC(=O)c3cc(O)c(O)c(O)c3)cc2)cc1)c1cc(O)c(O)c(O)c1 [Compound 30, 4,4′-Bis [(3,4,5-trihydroxybenzoyl)oxy]-1,1′-biphenyl]
latency to paw withdrawal to a thermal stimulus (CCI-mice; [3]): 3.71 ± 0.39 s
latency to paw withdrawal to a thermal stimulus (CCI-mice; [4]): 4.11 ± 0.51 s
latency to paw withdrawal to a thermal stimulus (CCI-mice; [5]): 3.93 ± 0.37 s
latency to paw withdrawal to a thermal stimulus (CCI-mice; [6]): 4.33 ± 0.57 s
latency to paw withdrawal to a thermal stimulus (CCI-mice; [7]): 4.31 ± 0.3 s
latency to paw withdrawal to a thermal stimulus (CCI-mice; [8]): 7.61 ± 0.67 s
time-dependent effect on thermal paw withdrawal latency vs vehicle (CCI-mice): augmentation in the paw withdrawal latency from 14 to 56 dpi
latency to paw withdrawal to a thermal stimulus (CCI-mice; [9]): 4.79 ± 0.44 s
latency to paw withdrawal to a thermal stimulus (CCI-mice; [10]): 6.49 ± 0.53 s
decrease in mRNA levels of TNF-α, IL-1β and IL-6 compared to vehicle (TNF-α, IL-1β and IL-6; 14 dpi): ~3 fold
decrease in mRNA levels of TNF-α, IL-1β and IL-6 compared to vehicle (TNF-α, IL-1β and IL-6; 56 dpi): not observed
mRNA levels of IL-6 compared to vehicle (TNF-α, IL-1β and IL-6; 56 dpi): slight decrease
nuclear NF-κB levels (NF-κB): reduced
half-life at 0.5 mM [1]: 114 min
half-life at 0.5 mM [2]: 24 min

epigallocatechin-3-gallate [EGCG]
latency to paw withdrawal to a thermal stimulus (CCI-mice; [3]): 3.93 ± 0.33 s
latency to paw withdrawal to a thermal stimulus (CCI-mice; [4]): 3.83 ± 0.23 s
latency to paw withdrawal to a thermal stimulus (CCI-mice; [5]): 5.01 ± 0.35 s
latency to paw withdrawal to a thermal stimulus (CCI-mice; [6]): 4.28 ± 0.45 s
latency to paw withdrawal to a thermal stimulus (CCI-mice; [7]): 13.01 ± 1.02 s
latency to paw withdrawal to a thermal stimulus (CCI-mice; [8]): 8.58 ± 0.9 s
time-dependent effect on thermal paw withdrawal latency vs vehicle (CCI-mice): increase in paw withdrawal latency in CCI-mice treated with EGCG from 7 to 21 dpi
latency to paw withdrawal to a thermal stimulus (CCI-mice; [9]): 9.38 ± 0.66 s
latency to paw withdrawal to a thermal stimulus (CCI-mice; [10]): 6.15 ± 0.42 s
decrease in mRNA levels of TNF-α, IL-1β and IL-6 compared to vehicle (TNF-α, IL-1β and IL-6; 14 dpi): ~3 fold
decrease in mRNA levels of TNF-α, IL-1β and IL-6 compared to vehicle (TNF-α, IL-1β and IL-6; 56 dpi): not observed
nuclear NF-κB levels (NF-κB): reduced
half-life (t1/2) [1]: < 0,1 h
half-life (t1/2) [2]: < 0,1 h
